Measured values as given in patent US8883778B2, “Cyclic inhibitors of 11 beta-hydroxysteroid dehydrogenase 1” (Vitae Pharmaceuticals, Inc., priority 2009, dated 2014).

Biological target: 11β-HSD1 (Homo sapiens, UniProt P28845)
Experiment: Inhibition of a microsomal preparation of 11β-HSD1, scintillation proximity assay
Format: biochemical
Set-up: expressed in transfected cells; host or cells: CHO cells (microsomes)
Settings: microsomes from CHO cells overexpressing human 11β-HSD1; for inhibition at 0.1 µM: at 100 nM
Experimental: All reactions were carried out at rt in 96 well clear flexible PET Microbeta plates (PerkinElmer). […] After a 10 minute pre-incubation, 50 μL of enzyme solution containing microsomes isolated from CHO cells overexpressing human 11β-HSD1 (10-20 μg/ml of total protein) was added, and the plates were incubated for 90 minutes at rt. The reaction was stopped by adding 50 μl of the SPA beads suspension containing 10 μM 18β-glycyrrhetinic acid, 5 mg/ml protein A coated YSi SPA beads (GE Healthcare) and 3.3 μg/ml of anti-cortisol antibody (East Coast Biologics) in Superblock buffer (Bio-Rad). The plates were shaken for 120 minutes at rt, and the SPA signal corresponding to [^3H]cortisol was measured on a Microbeta plate reader.

Chain of 11β-HSD1 (P28845 whole entry): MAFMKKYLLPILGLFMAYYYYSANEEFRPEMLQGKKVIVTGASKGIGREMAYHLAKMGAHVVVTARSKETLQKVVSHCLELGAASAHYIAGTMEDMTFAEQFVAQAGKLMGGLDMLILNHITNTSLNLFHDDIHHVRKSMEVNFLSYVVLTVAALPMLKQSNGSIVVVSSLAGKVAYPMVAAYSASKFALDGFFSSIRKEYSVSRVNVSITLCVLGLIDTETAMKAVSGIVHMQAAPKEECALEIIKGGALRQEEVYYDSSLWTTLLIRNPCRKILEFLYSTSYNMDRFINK

inhibition at 0.1 µM | IC50 | SMILES
94.5% | 3.7 nM | COC(=O)NC(C)(C)C#Cc1ccc([C@H](C)N2CC[C@](CC(C)(C)O)(c3ccccc3)OC2=O)cc1 [Example 18, methyl 4-(4-((S)-1-((S)-6-(2-hydroxy-2-methylpropyl)-2-oxo-6-phenyl-1,3-oxazinan-3-yl)ethyl)phenyl)-2-methylbut-3-yn-2-ylcarbamate]
95.9% | 2.8 nM | COC(=O)N1CC(O)(C#Cc2ccc([C@H](C)N3CC[C@](CC(C)(C)O)(c4ccccc4)OC3=O)cc2)C1 [Example 26, Methyl 3-hydroxy-3-((4-((S)-1-((S)-6-(2-hydroxy-2-methylpropyl)-2-oxo-6-phenyl-1,3-oxazinan-3-yl)ethyl)phenyl)ethynyl)azetidine-1-carboxylate]
63.7% | 53.4 nM | C[C@@H](c1ccc(C#CC(C)(C)N)cc1)N1CC[C@](CC(C)(C)O)(c2ccccc2)OC1=O [Example 12, (S)-3-((S)-1-(4-(3-amino-3-methylbut-1-ynyl)phenyl)ethyl)-6-(2-hydroxy-2-methylpropyl)-6-phenyl-1,3-oxazinan-2-one]
86% | 12.3 nM | C[C@@H](c1ccc(C#CC(C)(C)NC(=O)N(C)C)cc1)N1CC[C@](CC(C)(C)O)(c2ccccc2)OC1=O [Example 23, 3-(4-(4-((S)-1-((S)-6-(2-hydroxy-2-methylpropyl)-2-oxo-6-phenyl-1,3-oxazinan-3-yl)ethyl)phenyl)-2-methylbut-3-yn-2-yl)-1,1-dimethylurea]
89.1% | 1.9 nM | C[C@@H](c1ccc(C#CC2(O)CCCC2)cc1)N1CC[C@](CC(C)(C)O)(c2ccccc2)OC1=O [Example 2, (S)-6-(2-hydroxy-2-methylpropyl)-3-((S)-1-(4-((1-hydroxycyclopentyl)ethynyl)phenyl)ethyl)-6-phenyl-1,3-oxazinan-2-one]
82.5% | 12.4 nM | C[C@@H](c1ccc(C#CC2(N)CCCCC2)cc1)N1CC[C@](CC(C)(C)O)(c2ccccc2)OC1=O [Example 13, (S)-3-((S)-1-(4-((1-aminocyclohexyl)ethynyl)phenyl)ethyl)-6-(2-hydroxy-2-methylpropyl)-6-phenyl-1,3-oxazinan-2-one]
99.8% | 1.1 nM | C[C@@H](c1ccc(C#CC(C)(C)N2CCOC2=O)cc1)N1CC[C@](CC(C)(C)O)(c2ccccc2)OC1=O [Example 3, (S)-6-(2-hydroxy-2-methylpropyl)-3-((S)-1-(4-(3-methyl-3-(2-oxooxazolidin-3-yl)but-1-ynyl)phenyl)ethyl)-6-phenyl-1,3-oxazinan-2-one]
92.4% | 2.4 nM | COC(=O)NC1(C#Cc2ccc([C@H](C)N3CC[C@](CC(C)(C)O)(c4ccccc4)OC3=O)cc2)CCCCC1 [Example 15, Methyl 1-((4-((S)-1-((S)-6-(2-hydroxy-2-methylpropyl)-2-oxo-6-phenyl-1,3-oxazinan-3-yl)ethyl)phenyl)ethynyl)cyclohexylcarbamate]
95.8% | 2.4 nM | COC(=O)OC1(C#Cc2ccc([C@H](C)N3CC[C@](CC(C)(C)O)(c4ccccc4)OC3=O)cc2)CN(C(=O)OC)C1 [Example 27, Methyl 3-((4-((S)-1-((S)-6-(2-hydroxy-2-methylpropyl)-2-oxo-6-phenyl-1,3-oxazinan-3-yl)ethyl)phenyl)ethynyl)-3-(methoxycarbonyloxy)azetidine-1-carboxylate]
97.6% | 2.4 nM | C[C@@H](c1ccc(C#CC(C)(C)NC(N)=O)cc1)N1CC[C@](CC(C)(C)O)(c2ccccc2)OC1=O [Example 19, 1-(4-(4-((S)-1-((S)-6-(2-hydroxy-2-methylpropyl)-2-oxo-6-phenyl-1,3-oxazinan-3-yl)ethyl)phenyl)-2-methylbut-3-yn-2-yl)urea]
89.8% | 4.2 nM | CC(=O)NC1(C#Cc2ccc([C@H](C)N3CC[C@](CC(C)(C)O)(c4ccccc4)OC3=O)cc2)CCCCC1 [Example 14, N-(1-((4-((S)-1-((S)-6-(2-hydroxy-2-methylpropyl)-2-oxo-6-phenyl-1,3-oxazinan-3-yl)ethyl)phenyl)ethynyl)cyclohexyl)acetamide]
50.5% | 86.3 nM | C[C@@H](c1ccc(C#CC2(O)CCN(C)CC2)cc1)N1CC[C@](CC(C)(C)O)(c2ccccc2)OC1=O [Example 11, (S)-3-((S)-1-(4-((4-hydroxy-1-methylpiperidin-4-yl)ethynyl)phenyl)ethyl)-6-(2-hydroxy-2-methylpropyl)-6-phenyl-1,3-oxazinan-2-one]
93.7% | 3.4 nM | C[C@@H](c1ccc(C#CC(C)(C)NS(C)(=O)=O)cc1)N1CC[C@](CC(C)(C)O)(c2ccccc2)OC1=O [Example 21, N-(4-(4-((S)-1-((S)-6-(2-hydroxy-2-methylpropyl)-2-oxo-6-phenyl-1,3-oxazinan-3-yl)ethyl)phenyl)-2-methylbut-3-yn-2-yl)methanesulfonamide]
92.2% | 4.2 nM | CNC(=O)NC(C)(C)C#Cc1ccc([C@H](C)N2CC[C@](CC(C)(C)O)(c3ccccc3)OC2=O)cc1 [Example 20, 1-(4-(4-((S)-1-((S)-6-(2-hydroxy-2-methylpropyl)-2-oxo-6-phenyl-1,3-oxazinan-3-yl)ethyl)phenyl)-2-methylbut-3-yn-2-yl)-3-methylurea]
97% | 1.1 nM | C[C@@H](c1ccc(C#CC(C)(C)C(=O)N(C)C)cc1)N1CC[C@](CC(C)(C)O)(c2ccccc2)OC1=O [Example 5, 4-(4-((S)-1-((S)-6-(2-hydroxy-2-methylpropyl)-2-oxo-6-phenyl-1,3-oxazinan-3-yl)ethyl)phenyl)-N,N,2,2-tetramethylbut-3-ynamide]
96.6% | 1 nM | C[C@@H](c1ccc(C#Cc2ccccn2)cc1)N1CC[C@](CC(C)(C)O)(c2ccccc2)OC1=O [Example 9, (S)-6-(2-hydroxy-2-methylpropyl)-6-phenyl-3-((S)-1-(4-(pyridin-2-ylethynyl)phenyl)ethyl)-1,3-oxazinan-2-one]
56.1% | 62.3 nM | C[C@@H](c1ccc(C#CC2(O)CNC2)cc1)N1CC[C@](CC(C)(C)O)(c2ccccc2)OC1=O [Example 24, (S)-6-(2-hydroxy-2-methylpropyl)-3-((S)-1-(4-((3-hydroxyazetidin-3-yl)ethynyl)phenyl)ethyl)-6-phenyl-1,3-oxazinan-2-one]
103% | 1.7 nM | COc1cc(C#Cc2ccc([C@H](C)N3CC[C@](CC(C)(C)O)(c4ccccc4)OC3=O)cc2)ccn1 [Example 28, (S)-6-(2-hydroxy-2-methylpropyl)-3-((S)-1-(4-((2-methoxypyridin-4-yl)ethynyl)phenyl)ethyl)-6-phenyl-1,3-oxazinan-2-one]
94.1% | 3.6 nM | CC(=O)N1CC(O)(C#Cc2ccc([C@H](C)N3CC[C@](CC(C)(C)O)(c4ccccc4)OC3=O)cc2)C1 [Example 25, (S)-3-((S)-1-(4-((1-acetyl-3-hydroxyazetidin-3-yl)ethynyl)phenyl)ethyl)-6-(2-hydroxy-2-methylpropyl)-6-phenyl-1,3-oxazinan-2-one]
